Columns and labels:
Assay in all cases: biochemical
Design in all cases: KINOMEscan active-site-directed competition binding panel, 468 kinases, percent of DMSO control at 1 uM
Details in all cases: KINOMEscan binding, percent of DMSO control; read-out: Ctrl%
AKT1 = AKT1 (Homo sapiens, UniProt P31749)
ASK1 = target: T1, ASK1 (Homo sapiens, UniProt Q99683)
T1 construct: gene MAP3K5

AXL = AXL (Homo sapiens, UniProt P30530)
CAMKK2 = CAMKK2 (Homo sapiens, UniProt Q96RR4)
CHEK2 = CHEK2 (Homo sapiens, UniProt O96017)
CLK1 = CLK1 (Homo sapiens, UniProt P49759)
DCAMKL1 = target: T2, DCAMKL1 (Homo sapiens, UniProt O15075)
T2 construct: gene DCLK1

EPHB4 = EPHB4 (Homo sapiens, UniProt P54760)
ERBB3 = ERBB3 (Homo sapiens, UniProt P21860)
FER = FER (Homo sapiens, UniProt P16591)
FGFR2 = FGFR2 (Homo sapiens, UniProt P21802)
FLT1 = FLT1 (Homo sapiens, UniProt P17948)
FLT3(D835Y) = FLT3(D835Y) (Homo sapiens, UniProt P36888, D835Y)
GAK = GAK (Homo sapiens, UniProt O14976)
JNK3 = target: T3, JNK3 (Homo sapiens, UniProt P53779)
T3 construct: gene MAPK10

LATS2 = LATS2 (Homo sapiens, UniProt Q9NRM7)
MAP3K15 = MAP3K15 (Homo sapiens, UniProt Q6ZN16)
MYLK2 = MYLK2 (Homo sapiens, UniProt Q9H1R3)
NIK = target: T4, NIK (Homo sapiens, UniProt Q99558)
T4 construct: gene MAP3K14

NIM1 = target: T5, NIM1 (Homo sapiens, UniProt Q8IY84)
T5 construct: gene NIM1K

NLK = NLK (Homo sapiens, UniProt Q9UBE8)
PAK1 = PAK1 (Homo sapiens, UniProt Q13153)
QSK = target: T6, QSK (Homo sapiens, UniProt Q9Y2K2)
T6 construct: gene SIK3

TGFBR1 = TGFBR1 (Homo sapiens, UniProt P36897)
Chain of TGFBR1 (P36897 whole entry): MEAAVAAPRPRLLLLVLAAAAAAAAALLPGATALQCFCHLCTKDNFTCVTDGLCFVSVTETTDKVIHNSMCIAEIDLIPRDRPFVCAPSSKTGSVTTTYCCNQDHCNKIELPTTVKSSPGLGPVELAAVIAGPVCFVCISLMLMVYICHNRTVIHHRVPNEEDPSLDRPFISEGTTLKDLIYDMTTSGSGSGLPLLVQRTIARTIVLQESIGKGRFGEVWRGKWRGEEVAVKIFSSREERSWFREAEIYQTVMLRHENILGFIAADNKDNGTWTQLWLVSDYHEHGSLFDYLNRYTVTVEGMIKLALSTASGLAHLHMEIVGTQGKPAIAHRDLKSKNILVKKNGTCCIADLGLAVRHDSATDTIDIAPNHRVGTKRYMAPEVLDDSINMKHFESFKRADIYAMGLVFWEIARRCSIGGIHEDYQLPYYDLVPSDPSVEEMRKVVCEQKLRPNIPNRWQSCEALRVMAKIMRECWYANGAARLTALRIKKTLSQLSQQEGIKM

T1 sequence (Q99683 whole entry): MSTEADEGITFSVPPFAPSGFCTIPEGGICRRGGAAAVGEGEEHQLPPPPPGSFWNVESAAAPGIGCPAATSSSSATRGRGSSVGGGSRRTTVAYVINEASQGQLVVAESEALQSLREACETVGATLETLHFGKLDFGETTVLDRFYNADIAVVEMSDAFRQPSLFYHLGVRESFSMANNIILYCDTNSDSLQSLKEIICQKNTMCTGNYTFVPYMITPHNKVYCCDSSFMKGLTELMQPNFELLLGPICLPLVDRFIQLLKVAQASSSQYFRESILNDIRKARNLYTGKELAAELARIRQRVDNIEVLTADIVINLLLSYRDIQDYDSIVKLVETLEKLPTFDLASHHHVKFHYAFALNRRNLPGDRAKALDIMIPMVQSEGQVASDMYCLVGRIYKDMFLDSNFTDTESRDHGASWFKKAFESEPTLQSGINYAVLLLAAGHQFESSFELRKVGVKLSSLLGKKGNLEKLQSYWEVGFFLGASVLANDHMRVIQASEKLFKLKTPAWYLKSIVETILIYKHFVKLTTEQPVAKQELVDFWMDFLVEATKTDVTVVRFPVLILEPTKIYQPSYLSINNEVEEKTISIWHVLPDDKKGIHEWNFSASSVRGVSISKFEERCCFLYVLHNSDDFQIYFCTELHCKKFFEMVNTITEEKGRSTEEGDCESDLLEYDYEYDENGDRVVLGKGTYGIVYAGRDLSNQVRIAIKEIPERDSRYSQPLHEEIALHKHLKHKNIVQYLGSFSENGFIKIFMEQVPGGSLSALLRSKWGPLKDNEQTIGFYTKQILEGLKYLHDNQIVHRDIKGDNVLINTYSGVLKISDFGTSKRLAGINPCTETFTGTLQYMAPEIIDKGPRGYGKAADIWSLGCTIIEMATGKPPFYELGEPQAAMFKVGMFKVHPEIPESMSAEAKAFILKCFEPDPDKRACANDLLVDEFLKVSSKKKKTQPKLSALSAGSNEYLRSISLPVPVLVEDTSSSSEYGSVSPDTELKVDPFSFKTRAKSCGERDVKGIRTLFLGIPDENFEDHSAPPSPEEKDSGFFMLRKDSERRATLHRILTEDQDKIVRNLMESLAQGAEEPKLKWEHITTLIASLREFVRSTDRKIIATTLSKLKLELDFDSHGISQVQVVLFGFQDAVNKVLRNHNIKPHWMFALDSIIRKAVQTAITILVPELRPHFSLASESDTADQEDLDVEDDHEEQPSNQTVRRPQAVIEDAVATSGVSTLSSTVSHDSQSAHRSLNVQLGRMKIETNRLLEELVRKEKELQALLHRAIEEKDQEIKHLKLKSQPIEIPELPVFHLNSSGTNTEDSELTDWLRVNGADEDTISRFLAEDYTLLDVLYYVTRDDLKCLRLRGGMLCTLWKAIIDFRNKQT
Chain of CLK1 (P49759 whole entry): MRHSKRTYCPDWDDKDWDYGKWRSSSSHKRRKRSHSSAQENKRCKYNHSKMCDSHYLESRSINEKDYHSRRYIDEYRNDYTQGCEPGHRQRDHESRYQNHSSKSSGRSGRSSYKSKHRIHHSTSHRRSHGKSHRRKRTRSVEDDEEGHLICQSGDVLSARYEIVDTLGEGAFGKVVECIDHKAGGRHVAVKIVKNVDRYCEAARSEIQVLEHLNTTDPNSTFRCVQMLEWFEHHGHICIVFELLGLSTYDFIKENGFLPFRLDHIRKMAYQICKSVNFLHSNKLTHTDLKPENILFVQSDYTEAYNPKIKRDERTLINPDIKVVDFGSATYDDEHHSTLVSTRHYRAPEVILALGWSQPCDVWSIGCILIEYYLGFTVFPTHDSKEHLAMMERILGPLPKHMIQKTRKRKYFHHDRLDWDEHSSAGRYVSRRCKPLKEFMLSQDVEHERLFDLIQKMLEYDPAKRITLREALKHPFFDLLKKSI
Chain of MYLK2 (Q9H1R3 whole entry): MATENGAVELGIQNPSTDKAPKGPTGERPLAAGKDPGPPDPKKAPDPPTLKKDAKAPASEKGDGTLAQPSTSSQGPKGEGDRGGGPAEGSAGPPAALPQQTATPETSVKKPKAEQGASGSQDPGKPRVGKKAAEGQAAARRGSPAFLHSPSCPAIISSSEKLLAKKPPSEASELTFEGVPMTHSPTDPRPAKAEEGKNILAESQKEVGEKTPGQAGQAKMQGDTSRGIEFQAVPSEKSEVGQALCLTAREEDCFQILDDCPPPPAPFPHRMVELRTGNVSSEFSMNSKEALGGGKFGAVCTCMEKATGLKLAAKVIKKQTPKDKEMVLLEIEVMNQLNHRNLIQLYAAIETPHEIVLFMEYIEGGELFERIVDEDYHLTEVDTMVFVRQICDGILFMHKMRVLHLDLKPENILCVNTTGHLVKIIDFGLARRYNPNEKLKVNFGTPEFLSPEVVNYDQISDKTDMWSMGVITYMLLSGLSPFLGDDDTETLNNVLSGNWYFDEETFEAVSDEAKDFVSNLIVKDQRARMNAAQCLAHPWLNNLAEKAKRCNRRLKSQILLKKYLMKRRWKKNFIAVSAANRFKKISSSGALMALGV
Chain of LATS2 (Q9NRM7 whole entry): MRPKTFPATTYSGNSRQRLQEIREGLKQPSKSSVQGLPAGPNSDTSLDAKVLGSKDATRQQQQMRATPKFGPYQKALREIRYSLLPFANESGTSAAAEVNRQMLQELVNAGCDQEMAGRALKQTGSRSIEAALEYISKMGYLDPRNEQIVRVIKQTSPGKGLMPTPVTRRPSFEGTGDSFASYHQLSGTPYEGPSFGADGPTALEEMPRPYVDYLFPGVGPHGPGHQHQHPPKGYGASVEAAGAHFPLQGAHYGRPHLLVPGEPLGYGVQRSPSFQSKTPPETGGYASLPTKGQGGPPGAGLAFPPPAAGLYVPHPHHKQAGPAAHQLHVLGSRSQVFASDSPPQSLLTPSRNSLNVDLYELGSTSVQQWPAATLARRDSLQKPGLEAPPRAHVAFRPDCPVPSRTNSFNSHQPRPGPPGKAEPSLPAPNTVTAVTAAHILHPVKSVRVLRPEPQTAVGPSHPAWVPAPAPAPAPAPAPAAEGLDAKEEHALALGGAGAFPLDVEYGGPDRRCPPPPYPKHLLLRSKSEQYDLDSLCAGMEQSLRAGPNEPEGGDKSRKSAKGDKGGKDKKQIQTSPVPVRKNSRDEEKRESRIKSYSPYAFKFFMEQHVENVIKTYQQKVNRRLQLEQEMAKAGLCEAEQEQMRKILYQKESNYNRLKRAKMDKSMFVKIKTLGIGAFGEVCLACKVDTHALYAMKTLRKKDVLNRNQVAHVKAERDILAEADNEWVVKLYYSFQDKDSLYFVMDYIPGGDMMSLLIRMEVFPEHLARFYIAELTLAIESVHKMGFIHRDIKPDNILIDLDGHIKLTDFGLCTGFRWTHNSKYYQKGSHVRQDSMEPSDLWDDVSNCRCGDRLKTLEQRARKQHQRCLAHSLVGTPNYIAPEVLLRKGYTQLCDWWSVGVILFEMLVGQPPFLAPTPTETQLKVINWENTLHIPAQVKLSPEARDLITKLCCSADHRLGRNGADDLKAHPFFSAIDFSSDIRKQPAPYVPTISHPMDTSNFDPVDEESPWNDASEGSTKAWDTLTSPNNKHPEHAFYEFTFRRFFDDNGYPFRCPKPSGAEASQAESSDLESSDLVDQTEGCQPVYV
Chain of PAK1 (Q13153 whole entry): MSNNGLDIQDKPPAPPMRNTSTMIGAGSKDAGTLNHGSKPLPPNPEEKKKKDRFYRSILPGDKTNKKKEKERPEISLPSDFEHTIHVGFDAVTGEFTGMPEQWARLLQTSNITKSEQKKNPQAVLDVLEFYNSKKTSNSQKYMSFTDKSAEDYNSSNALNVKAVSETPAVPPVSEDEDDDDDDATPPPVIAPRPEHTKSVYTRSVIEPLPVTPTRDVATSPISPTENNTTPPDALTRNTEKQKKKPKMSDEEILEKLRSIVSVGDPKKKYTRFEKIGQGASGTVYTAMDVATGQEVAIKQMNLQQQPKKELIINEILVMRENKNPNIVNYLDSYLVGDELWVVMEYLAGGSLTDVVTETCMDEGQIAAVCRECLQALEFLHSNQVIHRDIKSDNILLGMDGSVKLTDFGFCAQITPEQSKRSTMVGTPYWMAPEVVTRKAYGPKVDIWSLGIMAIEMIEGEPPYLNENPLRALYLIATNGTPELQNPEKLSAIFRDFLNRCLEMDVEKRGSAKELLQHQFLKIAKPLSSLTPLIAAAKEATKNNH
T5 sequence (Q8IY84 whole entry): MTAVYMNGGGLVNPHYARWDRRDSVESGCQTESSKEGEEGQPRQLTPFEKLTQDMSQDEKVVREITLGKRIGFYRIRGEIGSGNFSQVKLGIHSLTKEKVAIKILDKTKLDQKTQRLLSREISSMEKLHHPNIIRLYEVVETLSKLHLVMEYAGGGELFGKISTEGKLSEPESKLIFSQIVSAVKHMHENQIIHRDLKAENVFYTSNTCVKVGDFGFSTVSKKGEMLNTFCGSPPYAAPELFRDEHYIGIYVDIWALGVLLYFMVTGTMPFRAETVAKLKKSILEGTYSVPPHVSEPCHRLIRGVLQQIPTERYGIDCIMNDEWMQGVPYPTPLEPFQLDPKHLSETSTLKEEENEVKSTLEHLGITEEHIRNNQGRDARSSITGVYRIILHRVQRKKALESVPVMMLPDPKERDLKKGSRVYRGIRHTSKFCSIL

## Cc1ccc(NC(=O)c2cccc(C(F)(F)F)c2)cc1Nc1cc(-c2cccnc2)nc2[nH]ccc12 [HZX-02-059]
AKT1
  remaining binding at 1 µM: 99%
ASK1
  remaining binding at 1 µM: 93%
AXL
  remaining binding at 1 µM: 90%
CAMKK2
  remaining binding at 1 µM: 93%
CHEK2
  remaining binding at 1 µM: 61%
CLK1
  remaining binding at 1 µM: 96%
DCAMKL1
  remaining binding at 1 µM: 93%
EPHB4
  remaining binding at 1 µM: 30%
ERBB3
  remaining binding at 1 µM: 100%
FER
  remaining binding at 1 µM: 77%
FGFR2
  remaining binding at 1 µM: 95%
FLT1
  remaining binding at 1 µM: 96%
FLT3(D835Y)
  remaining binding at 1 µM: 100%
GAK
  remaining binding at 1 µM: 91%
JNK3
  remaining binding at 1 µM: 96%
LATS2
  remaining binding at 1 µM: 67%
MAP3K15
  remaining binding at 1 µM: 53%
MYLK2
  remaining binding at 1 µM: 100%
NIK
  remaining binding at 1 µM: 61%
NIM1
  remaining binding at 1 µM: 99%
NLK
  remaining binding at 1 µM: 100%
PAK1
  remaining binding at 1 µM: 94%
QSK
  remaining binding at 1 µM: 66%
TGFBR1
  remaining binding at 1 µM: 76%
